We go through ten compounds from US20090270359A1, “SUBSTITUTED PYRAZOLE DERIVATIVES” (TAKEDA PHARMACEUTICAL COMPANY LIMITED, priority 2007, published 2009).

Molecules are shown by their SMILES. Changes are numbered by the printed parent chain.

In experiment [1] the target is T1, wild type androgen receptor (AR) (Homo sapiens, UniProt P10275).
T1 sequence (P10275 1-920): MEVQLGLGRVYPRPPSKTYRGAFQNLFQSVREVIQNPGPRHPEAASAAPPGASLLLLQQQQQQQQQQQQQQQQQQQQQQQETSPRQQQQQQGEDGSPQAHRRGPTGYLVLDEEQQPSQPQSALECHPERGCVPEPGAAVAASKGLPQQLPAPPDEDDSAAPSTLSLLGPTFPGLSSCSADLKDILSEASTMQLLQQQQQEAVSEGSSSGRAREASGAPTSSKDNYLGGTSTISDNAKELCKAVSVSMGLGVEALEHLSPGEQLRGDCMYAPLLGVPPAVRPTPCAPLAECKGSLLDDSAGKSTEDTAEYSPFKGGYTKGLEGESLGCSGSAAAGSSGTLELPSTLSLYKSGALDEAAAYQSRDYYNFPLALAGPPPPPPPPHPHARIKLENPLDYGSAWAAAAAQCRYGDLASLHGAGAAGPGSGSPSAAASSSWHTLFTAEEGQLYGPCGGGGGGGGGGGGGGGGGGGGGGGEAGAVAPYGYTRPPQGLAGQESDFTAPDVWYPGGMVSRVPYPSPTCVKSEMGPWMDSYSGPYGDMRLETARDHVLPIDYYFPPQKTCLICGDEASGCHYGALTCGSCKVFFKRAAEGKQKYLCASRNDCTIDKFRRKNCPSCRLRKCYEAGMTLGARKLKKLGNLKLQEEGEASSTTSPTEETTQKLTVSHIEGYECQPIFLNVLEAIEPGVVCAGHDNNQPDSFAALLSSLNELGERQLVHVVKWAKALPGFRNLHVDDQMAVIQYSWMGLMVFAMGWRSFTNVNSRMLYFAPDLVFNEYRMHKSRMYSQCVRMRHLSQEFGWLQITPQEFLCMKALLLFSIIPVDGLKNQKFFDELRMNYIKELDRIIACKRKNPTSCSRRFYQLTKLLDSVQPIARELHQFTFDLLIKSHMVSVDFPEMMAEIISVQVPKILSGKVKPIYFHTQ
Kind of experiment: AR-binding inhibition test, wild type (radio-labeled Mibolerone displacement). The conditions noted are these: compound 1 μM; 3 nM radio-labeled Mibolerone; 4° C., 3 hours; dextran/charcoal method; read-out: Inhibitory rate (%) at 1 μM, wild type. The protocol:
(§1) To a solution of wild type or LNCaP type mutant androgen receptor (AR) was added 3 nM radio-labeled Mibolerone and final concentration 1 μM of the compound. The mixture was incubated at 4° C. for 3 hours, and B (Bound) and F (Free) Mibolerones were separated by the dextran/charcoal method. The label count of B was measured and the inhibition rate of the compound was calculated.

Experiment [2] has as its target T2, LNCaP type mutant androgen receptor (AR) (Homo sapiens, UniProt P10275, T878A).
T2 sequence (P10275 1-920 T878A): T1 sequence (P10275 1-920) with T878A
Kind of experiment: AR-binding inhibition test, LNCaP type (radio-labeled Mibolerone displacement). The conditions noted are these: compound 1 μM; 3 nM radio-labeled Mibolerone; 4° C., 3 hours; dextran/charcoal method; read-out: Inhibitory rate (%) at 1 μM, LNCaP type. The protocol:
as §1

The target of the next experiment is T3, mutant AR (W741C) (Homo sapiens, UniProt P10275, W742C).
T3 construct: expressed in transfected cells; host or cells: Cos-7
T3 sequence (P10275 1-920 W742C): T1 sequence (P10275 1-920) with W742C
The experiment in a line: AR transcription inhibition test (luciferase reporter in Cos-7 cells). Format: cell-based. Conditions: compound 1 μM, 0.1 μM DHT, luciferase activity after 24 hr, relative to control (0.1 μM DHT), read-out: Inhibitory rate (%) of mutant AR at 1 μM. On the procedure:
Cos-7 cells (5,000,000 cells) were inoculated to a flask, and incubated in a culture medium (DMEM+10% Dextran Charcoal (DCC)−Fetal Bovine Serum (FBS) and 2 mM glutamine) for 24 hours. Then, a vector DNA harboring mutant AR (W741C) and a vector DNA containing a luciferase gene bound at the downstream of an androgen responsive promoter were cotransfected by a liposome method. After 4 hr, the medium was changed and, after culture for 3 hr, DHT (dihydrotestosterone) at the final concentration of 0.1 μM and the compound at the final concentration of 1 μM were added. After further culture for 24 hr, the luciferase activity was measured, and the AR transcription inhibitory activity of the compound was examined.

Experiment [3] relates to Human prostate cancer cells LNCaP-FGC. The experiment in a line: Prostate specific antigen (PSA) production inhibition test in prostate cancer cells. The format is cell-based. Conditions: compound 1 μM, testosterone 0.1 ng/m, PSA in culture supernatant after 3 days by ELISA, testosterone non-addition group 100%, addition group 0%; for inhibition at 1 µM: Homo sapiens, 72 h, read-out: Inhibitory rate (%) at 1 μM (PSA production suppression rate). On the procedure: Human prostate cancer cells LNCaP-FGC were plated in a 24 well plate at 40000 cells/1000 μL/well, and testosterone (final concentration 0.1 ng/m) and the compound (1 μM) were added the next day. The concentration of PSA in the culture supernatant after 3 days from the addition was measured by ELISA, and the PSA production suppression rate was calculated with the testosterone non-addition group as 100% and the testosterone addition group as 0%.

Turning to `Cc1nn(Cc2cccc(C(N)=O)c2)c(C)c1-c1ccc(C#N)c(Cl)c1` [Example 68, 3-{[4-(3-chloro-4-cyanophenyl)-3,5-dimethyl-1H-pyrazol-1-yl]methyl}benzamide], the inhibition at 1 µM is 76% in experiment [1], 82% in experiment [2], 31% on mutant AR (W741C) and 95.4% in experiment [3].

As for `Cc1nn(Cc2ccc(C(N)=O)cc2)c(C)c1-c1ccc(C#N)c(Cl)c1` [Example 69, 4-{[4-(3-chloro-4-cyanophenyl)-3,5-dimethyl-1H-pyrazol-1-yl]methyl}benzamide], the inhibition at 1 µM in experiment [1] came out at 88%; in experiment [2] it was 80%; on mutant AR (W741C), 19%; in experiment [3] it was 107%.

Turning to `Cc1nn(Cc2ccc(F)c(C(N)=O)c2)c(C)c1-c1ccc(C#N)c(Cl)c1` [Example 77, 5-{[4-(3-chloro-4-cyanophenyl)-3,5-dimethyl-1H-pyrazol-1-yl]methyl}-2-fluorobenzamide], the inhibition at 1 µM in experiment [1] turned out to be 78%; in experiment [2], 68%; on mutant AR (W741C), 92%; in experiment [3], 102%.

Take `Cc1nn(Cc2ccc(C(N)=O)nc2)c(C)c1-c1ccc(C#N)c(Cl)c1` [Example 105, 5-{[4-(3-chloro-4-cyanophenyl)-3,5-dimethyl-1H-pyrazol-1-yl]methyl}pyridine-2-carboxamide]: the inhibition at 1 µM in experiment [1] came out at 66%; in experiment [2], 75%; at mutant AR (W741C) it was 32%; in experiment [3], 109%.

In the case of `CNC(=O)c1ccc(Cn2nc(C)c(-c3ccc(C#N)c(Cl)c3)c2C)cn1` [Example 106, 5-{[4-(3-chloro-4-cyanophenyl)-3,5-dimethyl-1H-pyrazol-1-yl]methyl}-N-methylpyridine-2-carboxamide], the inhibition at 1 µM in experiment [1] was found to be 49%; in experiment [2], 79%; on mutant AR (W741C) it was 38%; in experiment [3], 110%.

For the compound `Cc1nn(Cc2ccc(C(=O)NCC(C)(C)O)cc2)c(C)c1-c1ccc(C#N)c(Cl)c1` [Example 282, 4-{[4-(3-chloro-4-cyanophenyl)-3,5-dimethyl-1H-pyrazol-1-yl]methyl}-N-(2-hydroxy-2-methylpropyl)benzamide], the inhibition at 1 µM was found to be 58% in experiment [1], 54% in experiment [2], 28% on mutant AR (W741C) and 80% in experiment [3].

With `Cc1nnc(-c2ccc(Cn3nc(C)c(-c4ccc(C#N)c(Cl)c4)c3C)cc2)o1` [Example 286, 2-chloro-4-{3,5-dimethyl-1-[4-(5-methyl-1,3,4-oxadiazol-2-yl)benzyl]-1H-pyrazol-4-yl}benzonitrile], the inhibition at 1 µM in experiment [1] was 85%; in experiment [2], 89%; on mutant AR (W741C), 67%; in experiment [3], 107%.

Regarding `Cc1nn(Cc2ccc(C(=O)NC3CC3)cc2)c(C)c1-c1ccc(C#N)c(Cl)c1` [Example 304, 4-{[4-(3-chloro-4-cyanophenyl)-3,5-dimethyl-1H-pyrazol-1-yl]methyl}-N-cyclopropylbenzamide], the inhibition at 1 µM came to 74% in experiment [1], 82% in experiment [2], 36% on mutant AR (W741C) and 98.3% in experiment [3].

As to `Cc1nn(Cc2ccc(C(=O)NC3CC3)nc2)c(C)c1-c1ccc(C#N)c(Cl)c1` [Example 310, 5-{[4-(3-chloro-4-cyanophenyl)-3,5-dimethyl-1H-pyrazol-1-yl]methyl}-N-cyclopropylpyridine-2-carboxamide], the inhibition at 1 µM in experiment [1] stood at 70%; in experiment [2], 73%; on mutant AR (W741C) it was 72%; in experiment [3], 106%.

`CC(O)(CS(=O)(=O)c1ccc(F)cc1)C(=O)Nc1ccc(C#N)c(C(F)(F)F)c1` (stereo not shown) [bicartamide, reference compound]: the “Inhibitory rate (%) at 1 μM (PSA production suppression rate)” value in experiment [3] was 75.0%.
